{"source": "PubChem BioAssay (NCI)", "test_in_all_cases": "NCI tumour cell line growth inhibition, 384-well format", "key": {"MOLT-4 leukemia": {"tested_on": "MOLT-4 leukemia"}, "NCI-H226 lung": {"tested_on": "NCI-H226 lung"}, "HS 578T breast": {"tested_on": "HS 578T breast"}, "BT-549 breast": {"tested_on": "BT-549 breast"}, "SNB-75 CNS": {"tested_on": "SNB-75 CNS"}, "K-562 leukemia": {"tested_on": "K-562 leukemia"}, "SN12C renal": {"tested_on": "SN12C renal"}, "HCC-2998 colon": {"tested_on": "HCC-2998 colon"}, "A498 renal": {"tested_on": "A498 renal"}, "HCT-116 colon": {"tested_on": "HCT-116 colon"}, "A549 NSCLC": {"tested_on": "A549 NSCLC"}, "U251 glioblastoma": {"tested_on": "U251 glioblastoma"}, "SF-268 CNS": {"tested_on": "SF-268 CNS"}, "SK-MEL-5 melanoma": {"tested_on": "SK-MEL-5 melanoma"}, "LOX IMVI melanoma": {"tested_on": "LOX IMVI melanoma"}, "HOP-62 NSCLC": {"tested_on": "HOP-62 NSCLC"}, "786-0 renal": {"tested_on": "786-0 renal"}, "NCI-H460 NSCLC": {"tested_on": "NCI-H460 NSCLC"}, "MDA-MB-231 breast": {"tested_on": "MDA-MB-231 breast"}, "NCI-H23 lung": {"tested_on": "NCI-H23 lung"}, "SNB-19 CNS": {"tested_on": "SNB-19 CNS"}, "T-47D breast": {"tested_on": "T-47D breast"}, "SW-620 colon": {"tested_on": "SW-620 colon"}, "UACC-62 melanoma": {"tested_on": "UACC-62 melanoma"}, "KM12 colon": {"tested_on": "KM12 colon"}, "NCI-H522 lung": {"tested_on": "NCI-H522 lung"}, "ACHN renal": {"tested_on": "ACHN renal"}}, "note": "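At the GI50, growth is halved. TGI is the concentration that stops growth completely.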"}
{"smiles": "Cc1ccc(C(=O)N(CCCN)C(c2oc3cc(Cl)ccc3c(=O)c2Cc2ccccc2)C(C)C)cc1", "note": "(centres undefined)", "values": [{"measurement": "GI50", "setting": "MOLT-4 leukemia", "result": "< 10", "unit": "nM"}, {"measurement": "TGI", "setting": "MOLT-4 leukemia", "result": "< 10", "unit": "nM"}, {"measurement": "GI50", "setting": "NCI-H226 lung", "result": 1500, "unit": "nM"}, {"measurement": "TGI", "setting": "NCI-H226 lung", "result": 2840, "unit": "nM"}, {"measurement": "GI50", "setting": "HS 578T breast", "result": "< 10", "unit": "nM"}, {"measurement": "TGI", "setting": "HS 578T breast", "result": "< 10", "unit": "nM"}, {"measurement": "GI50", "setting": "BT-549 breast", "result": "< 10", "unit": "nM"}, {"measurement": "TGI", "setting": "BT-549 breast", "result": 1360, "unit": "nM"}, {"measurement": "GI50", "setting": "SNB-75 CNS", "result": "< 10", "unit": "nM"}, {"measurement": "TGI", "setting": "SNB-75 CNS", "result": 1810, "unit": "nM"}, {"measurement": "GI50", "setting": "K-562 leukemia", "result": "< 10", "unit": "nM"}, {"measurement": "TGI", "setting": "K-562 leukemia", "result": "< 10", "unit": "nM"}, {"measurement": "GI50", "setting": "SN12C renal", "result": "< 10", "unit": "nM"}, {"measurement": "TGI", "setting": "SN12C renal", "result": 1880, "unit": "nM"}, {"measurement": "GI50", "setting": "HCC-2998 colon", "result": "< 10", "unit": "nM"}, {"measurement": "TGI", "setting": "HCC-2998 colon", "result": 542, "unit": "nM"}, {"measurement": "GI50", "setting": "A498 renal", "result": 29, "unit": "nM"}, {"measurement": "TGI", "setting": "A498 renal", "result": 2010, "unit": "nM"}, {"measurement": "GI50", "setting": "HCT-116 colon", "result": "< 10", "unit": "nM"}, {"measurement": "TGI", "setting": "HCT-116 colon", "result": 1210, "unit": "nM"}, {"measurement": "GI50", "setting": "A549 NSCLC", "result": "< 10", "unit": "nM"}, {"measurement": "TGI", "setting": "A549 NSCLC", "result": 1590, "unit": "nM"}, {"measurement": "GI50", "setting": "U251 glioblastoma", "result": "< 10", "unit": "nM"}, {"measurement": "TGI", "setting": "U251 glioblastoma", "result": 1460, "unit": "nM"}, {"measurement": "GI50", "setting": "SF-268 CNS", "result": "< 10", "unit": "nM"}, {"measurement": "TGI", "setting": "SF-268 CNS", "result": "< 10", "unit": "nM"}, {"measurement": "GI50", "setting": "SK-MEL-5 melanoma", "result": "< 10", "unit": "nM"}, {"measurement": "TGI", "setting": "SK-MEL-5 melanoma", "result": "< 10", "unit": "nM"}, {"measurement": "GI50", "setting": "LOX IMVI melanoma", "result": "< 10", "unit": "nM"}, {"measurement": "TGI", "setting": "LOX IMVI melanoma", "result": 1810, "unit": "nM"}, {"measurement": "GI50", "setting": "HOP-62 NSCLC", "result": "< 10", "unit": "nM"}, {"measurement": "TGI", "setting": "HOP-62 NSCLC", "result": 1760, "unit": "nM"}, {"measurement": "GI50", "setting": "786-0 renal", "result": "< 10", "unit": "nM"}, {"measurement": "TGI", "setting": "786-0 renal", "result": 1390, "unit": "nM"}, {"measurement": "GI50", "setting": "NCI-H460 NSCLC", "result": "< 10", "unit": "nM"}, {"measurement": "TGI", "setting": "NCI-H460 NSCLC", "result": "< 10", "unit": "nM"}, {"measurement": "GI50", "setting": "MDA-MB-231 breast", "result": "< 10", "unit": "nM"}, {"measurement": "TGI", "setting": "MDA-MB-231 breast", "result": 1840, "unit": "nM"}, {"measurement": "GI50", "setting": "NCI-H23 lung", "result": "< 10", "unit": "nM"}, {"measurement": "TGI", "setting": "NCI-H23 lung", "result": "< 10", "unit": "nM"}, {"measurement": "GI50", "setting": "SNB-19 CNS", "result": "< 10", "unit": "nM"}, {"measurement": "TGI", "setting": "SNB-19 CNS", "result": 1460, "unit": "nM"}, {"measurement": "GI50", "setting": "T-47D breast", "result": "< 10", "unit": "nM"}, {"measurement": "TGI", "setting": "T-47D breast", "result": "< 10", "unit": "nM"}, {"measurement": "GI50", "setting": "SW-620 colon", "result": "< 10", "unit": "nM"}, {"measurement": "TGI", "setting": "SW-620 colon", "result": 275, "unit": "nM"}, {"measurement": "GI50", "setting": "UACC-62 melanoma", "result": "< 10", "unit": "nM"}, {"measurement": "TGI", "setting": "UACC-62 melanoma", "result": 1290, "unit": "nM"}, {"measurement": "GI50", "setting": "KM12 colon", "result": "< 10", "unit": "nM"}, {"measurement": "TGI", "setting": "KM12 colon", "result": 1180, "unit": "nM"}, {"measurement": "GI50", "setting": "NCI-H522 lung", "result": "< 10", "unit": "nM"}, {"measurement": "TGI", "setting": "NCI-H522 lung", "result": "< 10", "unit": "nM"}, {"measurement": "GI50", "setting": "ACHN renal", "result": 1160, "unit": "nM"}, {"measurement": "TGI", "setting": "ACHN renal", "result": 2420, "unit": "nM"}]}
